Like-named read-outs stand apart in the source and are kept apart here.
Key:
Format in all cases: cell-based
[1] = system: human coronavirus HCoV-229E; design: unit not given here; settings: MRC-5 cells, qPCR
[2] = system: SARS-CoV-2 (hCoV-19/Germany/BY-ChVir-929/2020); assay: Pharmacological Test 3: SARS-CoV-2 infection of Vero E6 host cells, virus amount in culture supernatant by qPCR (Ct value); settings: for Ct value (average value): Vero E6 cells, SARS-CoV-2, culture supernatant
Protocol: Compound X described above was used as the test compound. Vero E6 (ATCC CRL1586) was used as a host cell, and this was cultured on a 96-well plate until a monolayer sheet was obtained. Next, the medium was removed, 50 μL of a mixed suspension medium of SARS-CoV-2 (hCoV-19/Germany/BY-ChVir-929/2020) and a predetermined dose of the test compound was added, and the resultant was allowed to stand at 37° C. for 1 hour. The virus concentration was 150 PFU/well. Subsequently, the medium was removed, and the cells were washed with PBS. Then, a new medium mixed with the same dose of the test compound as before was added, and the cells were cultured at 37° C. overnight. After culturing, the virus amount in the culture supernatant was quantified by qPCR. As the primers and probe, the new coronavirus N1 protein-specific primers and probe specified by the Centers for Disease Control and Prevention (CDC) were used, and the conditions were also in accordance with the conditions specified by the CDC. The number of PCR cycles (Ct value) until the signal intensity of the PCR product reached a predetermined intensity (threshold value) was determined.

[3] = system: human coronavirus OC43 (ATCC VR1588); assay: Pharmacological Test 2: OC43 infection of HCT-8 host cells, virus RNA quantified by RT-qPCR; design: unit not given here; settings: HCT-8 cells
Source text: Compound X described above was used as the test compound. […] Comparative Compound 2 used herein was chloroquine phosphate, which has temporarily been approved by the US Food and Drug Administration (FDA) for emergency use in patients with new coronavirus infection.

| SMILES | Virus amount ([1]; 1.6 μM test substance) | Virus amount ([1]; 3.1 μM test substance) | Virus amount ([1]; 6.3 μM test substance) | Virus amount ([1]; 12.5 μM test substance) | Virus amount ([1]; 25 μM test substance) | Virus amount ([1]; 50 μM test substance) | Virus amount ([1]; 0.78 μM test substance) | Virus amount ([1]; 1.58 μM test substance) | Virus amount ([3]; 0.78 μM test compound) | Virus amount ([3]; 3.1 μM test compound) | Virus amount ([3]; 12.5 μM test compound) | Virus amount ([3]; 25 μM test compound) | Virus amount ([3]; 50 μM test compound) | Virus amount ([3]; 1.58 μM test compound) | Virus amount ([3]; 6.3 μM test compound) | other results |
| --- | --- | --- | --- | --- | --- | --- | --- | --- | --- | --- | --- | --- | --- | --- | --- | --- |
| NC(=O)c1nccnc1O [Comparative compound, 3-Hydroxypyrazine-2-carboxamide, reference compound] | 1.E+07 | 7.E+06 | 9.E+06 | 5.E+06 | 2.E+07 | 2.E+07 | – | – | – | – | – | – | – | – | – | Virus amount ([1]; 100 μM test substance): 2.E+07 |
| COc1cc(OCc2ncc(C(F)(F)F)cc2F)ccc1-c1nc(-c2ccc(F)nc2)[nH]c1Cl [Compound X, 2-[[4-(5-chloro-2-(6-fluoropyridin-3-yl)-1H-imidazol-4-yl)-3-methoxyphenoxy]methyl]-3-fluoro-5-(trifluoromethyl) pyridine] | – | 5.E+06 | 5.E+06 | 1.E+06 | 4.E+02 | 3.E+03 | 9.E+06 | 1.E+07 | 3.E+08 | 6.E+08 | 2.E+05 | 1.E+05 | 1.E+05 | – | – | Ct value (average value) ([2]; 0.78 μM test compound): 21.0; Ct value (average value) ([2]; 1.56 μM test compound): 21.1; Ct value (average value) ([2]; 3.13 μM test compound): 20.9; Ct value (average value) ([2]; 6.25 μM test compound): 21.7; Ct value (average value) ([2]; 12.50 μM test compound): 24.7; Ct value (average value) ([2]; 25.00 μM test compound): 24.8; Ct value (average value) ([2]; 50.00 μM test compound): 24.5; infection-suppressing effect on SARS-CoV-2 ([2]; in words, Vero E6): showed an infection-suppressing effect on SARS-CoV-2; Virus amount ([3]; 1.6 μM test compound): 5.E+08; Virus amount ([3]; 6.2 μM test compound): 1.E+08 |
| COc1cc(OCc2ncc(C(F)(F)F)cc2F)ccc1-c1nc(-c2ccc(F)nc2)[nH]c1Br [Compound Y, 2-[[4-(5-bromo-2-(6-fluoropyridin-3-yl)-1H-imidazol-4-yl)-3-methoxyphenoxy]methyl]-3-fluoro-5-(trifluoromethyl)pyridine] | 1.E+08 | 1.E+08 | – | 8.E+07 | 4.E+04 | 3.E+04 | 2.E+08 | – | – | – | – | – | – | – | – | Virus amount ([1]; 6.2 μM test substance): 1.E+08 |
| Fc1ccc(-c2nc(-c3ccc(OCc4ncc(C(F)(F)F)cc4F)cc3Cl)c(Cl)[nH]2)cn1 [Compound Z, 2-[[3-chloro-4-(5-chloro-2-(6-fluoropyridin-3-yl)-1H-imidazol-4-yl)phenoxy]methyl]-3-fluoro-5-(trifluoromethyl)pyridine] | – | 3.E+08 | 3.E+08 | 8.E+07 | 2.E+05 | 4.E+04 | 3.E+08 | 1.E+08 | – | – | – | – | – | – | – | – |
| NC(=O)c1nc(F)c[nH]c1=O [compound 1, favipiravir] | – | – | – | – | – | – | – | – | 4.E+08 | 3.E+08 | 2.E+08 | 2.E+08 | 6.E+08 | 3.E+08 | 3.E+08 | – |
| CCN(CC)CCCC(C)Nc1ccnc2cc(Cl)ccc12 (stereo not drawn) [compound 2, chloroquine phosphate] | – | – | – | – | – | – | – | – | 2.E+08 | 4.E+08 | 6.E+07 | 3.E+06 | 9.E+06 | 3.E+08 | 6.E+08 | – |
